# Laboratory results reported in patent publication US9975907B2, “Pyrimidinones as PI3K inhibitors” (Incyte Corporation, priority 2009, dated 2018).
# Counter-ions that a name gives are not always drawn.
# Columns and labels:
# [1] = target: PI3Kβ (Homo sapiens (Human), UniProt P42338); assay: PI3K Enzyme Assay A2 ([γ-33P]ATP filter plate), PI3Kβ; format: biochemical; conditions: Assay A2, 1000 μM ATP
# Experimental: Materials: Lipid kinase substrate, phosphoinositol-4,5-bisphosphate (PIP2), was purchased from Echelon Biosciences (Salt Lake City, Utah). PI3K isoforms α, β, δ and γ were purchased from Millipore (Bedford, Mass.). ATP, MgCh, DTT, EDTA, MOPS and CHAPS were purchased from Sigma-Aldrich (St. Louis, Mo.). The kinase reaction was conducted in clear-bottom 96-well plate from Thermo Fisher Scientific in a final volume of 24 μL. Inhibitors were first diluted serially in DMSO and added to the plate wells before the addition of other reaction components. The final concentration of DMSO in the assay was 0.5%. The PI3K assays were carried out at room temperature in 20 mM MOPS, pH 6.7, 10 mM MgCl2, 5 mM DTT and CHAPS 0.03%. The reaction mixture was prepared containing 50 μM PIP2, kinase and varying concentration of inhibitors. Reactions were initiated by the addition of ATP containing 2.2 μCi [γ-^33P]ATP to a final concentration of 1000 μM. […] Reactions were incubated for 180 min and terminated by the addition of 100 μL of 1 M potassium phosphate pH 8.0, 30 mM EDTA quench buffer. A 100 μL aliquot of the reaction solution was then transferred to 96-well Millipore MultiScreen IP 0.45 μm PVDF filter plate (The filter plate was prewetted with 200 μL 100% ethanol, distilled water, and 1 M potassium phosphate pH 8.0, respectively). The filter plate was aspirated on a Millipore Manifold under vacuum and washed with 18×200 μL wash buffer containing 1 M potassium phosphate pH 8.0 and 1 mM ATP. After drying by aspiration and blotting, the plate was air dried in an incubator at 37° C. overnight. Packard TopCount adapter (Millipore) was then attached to the plate followed with addition of 120 μL Microscint 20 scintillation cocktail (Perkin Elmer) in each well. After the plate sealing, the radioactivity of the product was determined by scintillation counting on Topcount (Perkin-Elmer). IC50 determination was performed by fitting the curve of percent control activity versus the log of the inhibitor concentration using the GraphPad Prism 3.0 software. […] See Table 1 for data related to compounds of the invention.
# [2] = target: PI3Kγ (Homo sapiens (Human), UniProt P48736); assay: PI3K Enzyme Assay A2 ([γ-33P]ATP filter plate), PI3Kγ; format: biochemical; conditions: Assay A2, 1000 μM ATP
# Chain of PI3Kγ (P48736 whole entry, species assumed, canonical isoform): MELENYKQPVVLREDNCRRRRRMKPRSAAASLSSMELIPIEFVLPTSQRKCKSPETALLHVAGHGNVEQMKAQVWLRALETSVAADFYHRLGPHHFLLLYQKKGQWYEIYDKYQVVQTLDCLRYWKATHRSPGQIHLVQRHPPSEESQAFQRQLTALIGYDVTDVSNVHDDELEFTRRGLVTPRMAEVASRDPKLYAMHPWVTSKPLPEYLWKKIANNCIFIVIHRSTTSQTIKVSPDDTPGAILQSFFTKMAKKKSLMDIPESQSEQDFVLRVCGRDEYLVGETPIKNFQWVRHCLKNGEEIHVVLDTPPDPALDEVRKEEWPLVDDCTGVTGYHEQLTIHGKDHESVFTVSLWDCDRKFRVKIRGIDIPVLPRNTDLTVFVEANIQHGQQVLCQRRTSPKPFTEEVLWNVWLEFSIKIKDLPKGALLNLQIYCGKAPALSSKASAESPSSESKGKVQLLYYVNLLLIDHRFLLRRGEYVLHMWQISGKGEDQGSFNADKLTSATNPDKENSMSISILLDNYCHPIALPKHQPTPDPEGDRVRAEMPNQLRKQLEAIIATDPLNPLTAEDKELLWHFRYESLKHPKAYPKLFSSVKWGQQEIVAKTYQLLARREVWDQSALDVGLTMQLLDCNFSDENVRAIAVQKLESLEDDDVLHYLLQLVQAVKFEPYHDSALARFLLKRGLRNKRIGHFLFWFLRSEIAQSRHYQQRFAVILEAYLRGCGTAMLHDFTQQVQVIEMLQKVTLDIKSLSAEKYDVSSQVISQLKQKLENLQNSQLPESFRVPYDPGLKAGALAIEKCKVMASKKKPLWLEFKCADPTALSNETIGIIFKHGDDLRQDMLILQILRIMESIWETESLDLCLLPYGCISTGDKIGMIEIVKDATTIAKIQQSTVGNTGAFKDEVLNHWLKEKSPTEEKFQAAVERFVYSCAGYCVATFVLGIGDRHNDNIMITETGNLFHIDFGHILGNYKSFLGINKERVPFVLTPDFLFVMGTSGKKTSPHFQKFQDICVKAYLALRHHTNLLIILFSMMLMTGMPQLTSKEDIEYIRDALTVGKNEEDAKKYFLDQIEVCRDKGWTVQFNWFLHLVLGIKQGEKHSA
# Experimental: Materials: Lipid kinase substrate, phosphoinositol-4,5-bisphosphate (PIP2), was purchased from Echelon Biosciences (Salt Lake City, Utah). PI3K isoforms α, β, δ and γ were purchased from Millipore (Bedford, Mass.). ATP, MgCh, DTT, EDTA, MOPS and CHAPS were purchased from Sigma-Aldrich (St. Louis, Mo.).
# The kinase reaction was conducted in clear-bottom 96-well plate from Thermo Fisher Scientific in a final volume of 24 μL. Inhibitors were first diluted serially in DMSO and added to the plate wells before the addition of other reaction components. The final concentration of DMSO in the assay was 0.5%. The PI3K assays were carried out at room temperature in 20 mM MOPS, pH 6.7, 10 mM MgCl2, 5 mM DTT and CHAPS 0.03%. The reaction mixture was prepared containing 50 μM PIP2, kinase and varying concentration of inhibitors. Reactions were initiated by the addition of ATP containing 2.2 μCi [γ-^33P]ATP to a final concentration of 1000 μM. The final concentration of PI3K isoforms α, β, δ and γ in the assay were 1.3, 9.4, 2.9 and 10.8 nM respectively. Reactions were incubated for 180 min and terminated by the addition of 100 μL of 1 M potassium phosphate pH 8.0, 30 mM EDTA quench buffer. A 100 μL aliquot of the reaction solution was then transferred to 96-well Millipore MultiScreen IP 0.45 μm PVDF filter plate (The filter plate was prewetted with 200 μL 100% ethanol, distilled water, and 1 M potassium phosphate pH 8.0, respectively). The filter plate was aspirated on a Millipore Manifold under vacuum and washed with 18×200 μL wash buffer containing 1 M potassium phosphate pH 8.0 and 1 mM ATP. After drying by aspiration and blotting, the plate was air dried in an incubator at 37° C. overnight. Packard TopCount adapter (Millipore) was then attached to the plate followed with addition of 120 μL Microscint 20 scintillation cocktail (Perkin Elmer) in each well. After the plate sealing, the radioactivity of the product was determined by scintillation counting on Topcount (Perkin-Elmer). IC50 determination was performed by fitting the curve of percent control activity versus the log of the inhibitor concentration using the GraphPad Prism 3.0 software. […] See Table 1 for data related to compounds of the invention.
# [3] = target: T1, PI3Kδ (p110δ/p85α) (Homo sapiens (Human), UniProt O00329); assay: PI3Kδ Scintillation Proximity Assay (Assay A3); format: biochemical; conditions: column b, Assay A3 (SPA), 20 μM ATP
# T1 sequence (O00329 whole entry, species assumed): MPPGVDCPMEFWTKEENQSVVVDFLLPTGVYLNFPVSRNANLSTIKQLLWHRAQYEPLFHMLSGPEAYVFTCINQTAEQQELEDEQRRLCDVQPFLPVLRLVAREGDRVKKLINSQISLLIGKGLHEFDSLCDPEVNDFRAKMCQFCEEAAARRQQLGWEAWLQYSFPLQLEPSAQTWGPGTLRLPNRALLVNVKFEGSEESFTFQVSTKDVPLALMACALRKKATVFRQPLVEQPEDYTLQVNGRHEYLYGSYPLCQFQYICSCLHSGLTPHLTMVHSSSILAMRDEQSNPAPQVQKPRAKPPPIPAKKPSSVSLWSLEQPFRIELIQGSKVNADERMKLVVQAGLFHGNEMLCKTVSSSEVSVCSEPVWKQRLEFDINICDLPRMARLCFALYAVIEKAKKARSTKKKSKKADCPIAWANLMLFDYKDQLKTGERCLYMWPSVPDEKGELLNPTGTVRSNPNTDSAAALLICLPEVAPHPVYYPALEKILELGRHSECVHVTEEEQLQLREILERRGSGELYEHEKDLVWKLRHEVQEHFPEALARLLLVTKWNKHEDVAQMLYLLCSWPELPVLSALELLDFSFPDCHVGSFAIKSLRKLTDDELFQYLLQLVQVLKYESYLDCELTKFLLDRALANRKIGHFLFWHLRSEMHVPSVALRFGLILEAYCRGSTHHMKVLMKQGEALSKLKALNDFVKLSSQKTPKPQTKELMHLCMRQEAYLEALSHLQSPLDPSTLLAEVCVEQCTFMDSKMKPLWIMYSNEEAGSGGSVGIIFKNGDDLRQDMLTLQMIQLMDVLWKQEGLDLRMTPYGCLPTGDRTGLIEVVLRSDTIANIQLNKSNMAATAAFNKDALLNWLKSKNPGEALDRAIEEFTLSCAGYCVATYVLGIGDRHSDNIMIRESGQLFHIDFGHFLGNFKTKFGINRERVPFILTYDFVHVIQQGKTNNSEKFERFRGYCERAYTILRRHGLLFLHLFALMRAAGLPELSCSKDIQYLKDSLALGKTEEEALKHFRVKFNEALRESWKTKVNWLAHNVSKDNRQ
# T1 sequence (P27986 whole entry partner, species assumed): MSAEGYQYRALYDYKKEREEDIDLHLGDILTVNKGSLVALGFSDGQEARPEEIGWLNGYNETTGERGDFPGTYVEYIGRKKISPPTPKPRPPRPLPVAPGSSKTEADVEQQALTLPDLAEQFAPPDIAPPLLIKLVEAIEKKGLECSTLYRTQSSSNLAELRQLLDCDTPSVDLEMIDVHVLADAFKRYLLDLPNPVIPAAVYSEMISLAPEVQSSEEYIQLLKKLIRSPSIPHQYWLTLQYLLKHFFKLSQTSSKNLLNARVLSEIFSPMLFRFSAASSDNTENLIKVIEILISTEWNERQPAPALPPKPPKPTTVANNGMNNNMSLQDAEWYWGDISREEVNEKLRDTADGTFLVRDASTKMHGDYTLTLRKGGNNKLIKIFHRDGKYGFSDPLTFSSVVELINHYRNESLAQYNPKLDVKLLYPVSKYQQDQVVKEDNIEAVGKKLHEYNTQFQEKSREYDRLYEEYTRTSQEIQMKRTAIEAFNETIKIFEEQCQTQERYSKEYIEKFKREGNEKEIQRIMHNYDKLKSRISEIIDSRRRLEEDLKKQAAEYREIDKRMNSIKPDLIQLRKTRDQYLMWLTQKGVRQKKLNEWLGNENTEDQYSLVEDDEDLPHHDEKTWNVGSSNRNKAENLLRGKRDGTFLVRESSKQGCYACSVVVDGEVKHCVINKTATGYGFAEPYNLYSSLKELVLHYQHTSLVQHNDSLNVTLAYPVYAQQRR
# In short: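 Human p110δ/p85α (4 nM) with 20 μM diC8-PIP2 and 20 μM ATP plus [γ-33P]ATP, 210 min at room temperature in 20 mM MOPS pH 6.7, 10 mM MgCl2, 5 mM DTT, 0.03% CHAPS, 0.5% DMSO. Product captured on WGA SPA beads in EDTA quench; IC50 from percent-control versus log concentration fit.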
# [4] = system: Pfeiffer cell line (diffuse large B cell lymphoma); assay: Pfeiffer Cell Proliferation Assay; format: cell-based; conditions: 3-4 days, [3H]-thymidine incorporation
# Experimental: Pfeiffer cell line (diffuse large B cell lymphoma) was purchased from ATCC (Manassas, Va.) and maintained in the culture medium recommended (RPMI and 10% FBS). To measure the anti-proliferation activity of the PI3Kδ submittals, the Pfeiffer cells were plated with the culture medium (2×10^3 cells/well/per 200 μl) into 96-well ultra-low binding plates (Corning, Corning, N.Y.), in the presence or absence of a concentration range of test compounds. After 3-4 days, [^3H]-thymidine (1 μCi/well) (PerkinElmer, Boston, Mass.) in PBS was then added to the cell culture for an additional 12 hrs before the incorporated radioactivity was separated by filtration with water through GF/B filters (Packard Bioscience, Meriden, Conn.) and measured by liquid scintillation counting with a TopCount (Packard Bioscience). See Table 3 for data related to compounds of the invention.
# [5] = target: T1, PI3Kδ (p110δ/p85α); assay: AlphaScreen Assay for PI3Kδ (Assay A1); format: biochemical; conditions: column a, 20 μM ATP
# Text: PI3-Kinase luminescent assay kit including lipid kinase substrate, D-myo-phosphatidylinositol 4,5-bisphosphate (PtdIns(4,5)P2)D (+)-sn-1,2-di-O-octanoylglyceryl, 3-O-phospho linked (PIP2), biotinylated I(1,3,4,5)P4, PI(3,4,5)P3 Detector Protein, was purchased from Echelon Biosciences (Salt Lake City, Utah). AlphaScreen™ GST Detection Kit including donor and acceptor beads was purchased from PerkinElmer Life Sciences (Waltham, Mass.). PI3Kδ (p110δ/p85α) was purchased from Millipore (Bedford, Mass.). ATP, MgCb, DTT, EDTA, HEPES and CHAPS were purchased from Sigma-Aldrich (St. Louis, Mo.).
# AlphaScreen™ Assay for PI3Kδ
# The kinase reaction was conducted in 384-well REMP plate from Thermo Fisher Scientific in a final volume of 40 μL. Inhibitors were first diluted serially in DMSO and added to the plate wells before the addition of other reaction components. The final concentration of DMSO in the assay was 2%. The PI3K assays were carried out at room temperature in 50 mM HEPES, pH 7.4, 5 mM MgCl2, 50 mM NaCl, 5 mM DTT and CHAPS 0.04%. Reactions were initiated by the addition of ATP, the final reaction mixture consisted of 20 μM PIP2, 20 μM ATP, 1.2 nM PI3Kδ were incubated for 20 min. 10 μL of reaction mixture was then transferred to 5 μL 50 nM biotinylated I(1,3,4,5)P4 in quench buffer: 50 mM HEPES pH 7.4, 150 mM NaCl, 10 mM EDTA, 5 mM DTT, 0.1% Tween-20, followed with the addition of 10 μL AlphaScreen™ donor and acceptor beads suspended in quench buffer containing 25 nM PI(3,4,5)P3 detector protein. The final concentration of both donor and acceptor beads is […]. After plate sealing, the plate was incubated in a dark location at room temperature for 2 hours. The activity of the product was determined on Fusion-alpha microplate reader (Perkin-Elmer). IC50 determination was performed by fitting the curve of percent control activity versus the log of the inhibitor concentration using the GraphPad Prism 3.0 software.
# [6] = system: purified B cells from human PBMC; assay: B Cell Proliferation Assay; format: cell-based; conditions: anti-human IgM stimulated, three days, [3H]-thymidine incorporation
# Experimental: To acquire B cells, human PBMC were isolated from the peripheral blood of normal, drug free donors by standard density gradient centrifugation on Ficoll-Hypague (GE Healthcare, Piscataway, N.J.) and incubated with anti-CD19 microbeads (Miltenyi Biotech, Auburn, Calif.). The B cells were then purified by positive immunosorting using an autoMacs (Miltenyi Biotech) according to the manufacturer's instruction.
# The purified B cells (2×10^5/well/200 μL) were cultured in 96-well ultra-low binding plates (Corning, Corning, N.Y.) in RPMI1640, 10% FBS and goat F(ab′)2 anti-human IgM (10 μg/ml) (Invitrogen, Carlsbad, Calif.), in the presence of different amount of test compounds, for three days. [^3H]-thymidine (1 μCi/well) (PerkinElmer, Boston, Mass.) in PBS was then added to the B cell cultures for an additional 12 hrs before the incorporated radioactivity was separated by filtration with water through GF/B filters (Packard Bioscience, Meriden, Conn.) and measured by liquid scintillation counting with a TopCount (Packard Bioscience). Compounds having and IC^50 value of 10 μM or less are considered active. See Table 2 for data related to compounds of the invention.
# Chain of PI3Kβ (P42338 whole entry, species assumed, canonical isoform): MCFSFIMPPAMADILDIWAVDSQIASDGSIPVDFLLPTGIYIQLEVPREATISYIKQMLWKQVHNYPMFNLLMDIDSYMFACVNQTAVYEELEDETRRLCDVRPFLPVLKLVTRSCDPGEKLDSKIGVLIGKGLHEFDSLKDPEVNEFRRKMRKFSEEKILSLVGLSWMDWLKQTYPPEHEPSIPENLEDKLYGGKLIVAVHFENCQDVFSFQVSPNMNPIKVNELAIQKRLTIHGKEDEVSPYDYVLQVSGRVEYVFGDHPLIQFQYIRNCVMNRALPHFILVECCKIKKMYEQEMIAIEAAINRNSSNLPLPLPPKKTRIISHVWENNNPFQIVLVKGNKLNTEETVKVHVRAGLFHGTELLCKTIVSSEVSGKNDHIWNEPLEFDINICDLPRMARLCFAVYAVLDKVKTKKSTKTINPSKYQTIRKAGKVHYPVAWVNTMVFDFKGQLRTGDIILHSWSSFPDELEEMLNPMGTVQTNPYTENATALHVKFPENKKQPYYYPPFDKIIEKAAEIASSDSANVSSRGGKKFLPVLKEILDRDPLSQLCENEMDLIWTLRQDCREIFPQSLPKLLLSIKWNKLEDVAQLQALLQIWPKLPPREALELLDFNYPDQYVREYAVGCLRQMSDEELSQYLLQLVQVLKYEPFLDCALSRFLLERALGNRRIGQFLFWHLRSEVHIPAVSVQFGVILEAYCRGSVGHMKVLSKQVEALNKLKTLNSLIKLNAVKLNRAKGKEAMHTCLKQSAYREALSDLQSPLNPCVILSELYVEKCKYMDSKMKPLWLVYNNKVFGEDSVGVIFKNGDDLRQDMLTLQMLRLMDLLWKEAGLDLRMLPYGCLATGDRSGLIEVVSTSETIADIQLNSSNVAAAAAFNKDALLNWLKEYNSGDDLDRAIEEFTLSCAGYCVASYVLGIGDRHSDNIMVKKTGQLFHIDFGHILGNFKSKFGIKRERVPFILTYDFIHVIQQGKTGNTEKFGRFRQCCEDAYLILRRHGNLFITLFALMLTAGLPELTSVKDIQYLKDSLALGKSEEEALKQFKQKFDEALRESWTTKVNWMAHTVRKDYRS
# Chain of PI3Kβ (P27986 whole entry partner, species assumed, canonical isoform): as the sequence (P27986 whole entry partner, species assumed) above
SMILES,IC50 [3],IC50 ([4]; trifluoroacetic acid salt),IC50 [2],further results
"Cc1csc2nc([C@H](C)Nc3ncnc4[nH]cnc34)c(-c3cccc(F)c3)c(=O)n12 [Example 15, (S)-7-(1-(9H-purin-6-ylamino)ethyl)-6-(3-fluorophenyl)-3-methyl-5H-thiazolo[3,2-a]pyrimidin-5-one]",,,> 500 nM,IC50 [1]: > 500 nM
"Cc1csc2nc(C(C)Nc3nc(N)nc4[nH]cnc34)c(-c3cc(F)cc(F)c3)c(=O)n12 (single isomer, unassigned) [Example 23, 7-{1-[(2-amino-9H-purin-6-yl)amino]ethyl}-6-(3,5-difluorophenyl)-3-methyl-5H-[1,3]thiazolo[3,2-a]pyrimidin-5-one]",< 50 nM,,> 500 nM,"IC50 ([4]; Homo sapiens, Pfeiffer): < 50 nM"
"Cc1cccc2nc(C(C)Nc3ncnc4[nH]cnc34)c(-c3cccc(F)c3)c(=O)n12 (single isomer, unassigned) [Example 71, 3-(3-Fluorophenyl)-6-methyl-2-[1-(9H-purin-6-ylamino)ethyl]-4H-pyrido[1,2-a]pyrimidin-4-one trifluoroacetic acid salt]",< 50 nM,< 50 nM,> 500 nM,
"Cc1csc2nc(C(C)Nc3ncnc4[nH]cnc34)c(-c3cccc(F)c3)c(=O)n12 (centres unmarked) [Example 10, 6-(3-fluorophenyl)-3-methyl-7-[1-(9H-purin-6-ylamino)ethyl]-5H-[1,3]thiazolo[3,2-a]pyrimidin-5-one]",,,> 500 nM,IC50 [1]: > 500 nM

# Now from value to molecule, other results behind:
IC50 [3],IC50 ([4]; trifluoroacetic acid salt),SMILES,IC50 [2],further results
> 500 nM,500 to 1000 nM,"Cc1cccc2nc(C(C)Nc3nc(N)nc4[nH]cnc34)c(-c3cccc(F)c3)c(=O)n12 (single isomer, unassigned) [Example 75, 2-{1-[(2-Amino-9H-purin-6-yl)amino]ethyl}-3-(3-fluorophenyl)-6-methyl-4H-pyrido[1,2-a]pyrimidin-4-one trifluoroacetic acid salt]",,
> 500 nM,500 to 1000 nM,"Cc1cccc2nc(C(C)Nc3ncnc4[nH]cnc34)c(-c3cccc(F)c3)c(=O)n12 (single isomer, unassigned) [Example 72, 3-(3-Fluorophenyl)-6-methyl-2-[1-(9H-purin-6-ylamino)ethyl]-4H-pyrido[1,2-a]pyrimidin-4-one trifluoroacetic acid salt]",,
< 50 nM,,"Cc1csc2nc(C(C)Nc3ncnc4[nH]cnc34)c(-c3cc(F)cc(F)c3)c(=O)n12 (centres unmarked) [Example 12, 6-(3,5-difluorophenyl)-3-methyl-7-[1-(9H-purin-6-ylamino)ethyl]-5H-[1,3]thiazolo[3,2-a]pyrimidin-5-one]",,IC50 [5]: < 50 nM; IC50 [6]: < 50 nM
